Drawing on patent US8846739B2, “TGR5 agonists” (Exelixis Patent Company LLC, priority 2009, dated 2014), this text covers EC50 for 17 compounds.

One assay concerns the target T1, human TGR5 (h-TGR5) (Homo sapiens, UniProt Q8TDU6).
T1 sequence (Q8TDU6 1-330): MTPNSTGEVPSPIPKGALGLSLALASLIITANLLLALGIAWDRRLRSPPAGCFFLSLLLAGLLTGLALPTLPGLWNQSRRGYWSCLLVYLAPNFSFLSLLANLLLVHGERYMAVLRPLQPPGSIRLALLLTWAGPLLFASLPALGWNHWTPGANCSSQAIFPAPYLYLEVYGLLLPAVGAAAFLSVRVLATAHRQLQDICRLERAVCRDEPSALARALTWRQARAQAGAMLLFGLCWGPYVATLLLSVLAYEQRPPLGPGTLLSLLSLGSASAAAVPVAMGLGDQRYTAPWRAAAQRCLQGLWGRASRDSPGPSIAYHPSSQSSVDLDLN
Briefly: TGR5/CRE-Luciferase Assay. Type of assay: cell-based. The following applies: HEK 293 hTGR5/CRE-Luc cells, 6 hours incubation, read-out: CRE-Luc Agonist (EC50). A digest of the protocol: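 HEK 293 CRE-Luciferase cells stably expressing the receptor, plated in DMEM 18-20 h before assay, then exposed to serially diluted compounds (DMEM with 5% DMSO) for 6 h. Luciferase read-out after lysis; EC50 from dose-response.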

In another assay the target is T2, h-TGR5 (Homo sapiens, UniProt Q8TDU6).
T2 sequence (Q8TDU6 1-330): T1 sequence (Q8TDU6 1-330)
As to the kind of experiment: TGR5 cAMP Assay using Cisbio cAMP Dynamic 2 htrf assay kit. The class given is cell-based. The following applies: hTGR5CRE-luc HEK 293 cells.

On to `CC[N+](C)(C)C1CCN(S(=O)(=O)c2cc(F)c(CSc3ncc(C(C)(C)c4ccc(F)c(OC)c4)n3-c3ccc(F)cc3)c(Cl)c2)CC1` [Compound 11q, 1-{[3-chloro-5-fluoro-4-({[5-{1-[4-fluoro-3-(methyloxy)phenyl]-1-methylethyl}-1-(4-fluorophenyl)-1H-imidazol-2-yl]thio}methyl)phenyl]sulfonyl}-N-ethyl-N,N-dimethylpiperidin-4-aminium], for which the EC50 at human TGR5 (h-TGR5) and at h-TGR5 was less than 100 nM each time.
Take `COc1cc(C(C)(C)c2cnc(SCc3c(F)cc(S(=O)(=O)N(CCC[N+](C)(C)C)C(C)C)cc3Cl)n2-c2ccc(F)cc2)ccc1F` [Compound 14l, 3-[{[3-chloro-5-fluoro-4-({[5-{1-[4-fluoro-3-(methyloxy)phenyl]-1-methylethyl}-1-(4-fluorophenyl)-1H-imidazol-2-yl]thio}methyl)phenyl]sulfonyl} (1-methylethyl)amino]-N,N,N-trimethylpropan-1-aminium]: the EC50 on human TGR5 (h-TGR5) and on h-TGR5 was less than 100 nM each time.
In the case of `COc1ccc(C(C)(C)c2cnc(SCc3c(F)cc(CCC[N+](C)(C)C)cc3F)n2-c2ccc(F)cc2)cc1Cl` [Compound 19c, 3-(4-((5-(2-(3-chloro-4-methoxyphenyl)propan-2-yl)-1-(4-fluorophenyl)-1H-imidazol-2-ylthio)methyl)-3,5-difluorophenyl)-N,N,N-trimethylpropan-1-aminium 2,2,2-trifluoroacetate], the EC50 on human TGR5 (h-TGR5) and on h-TGR5 was less than 100 nM each time.
In the case of `COc1cc(C(C)(C)c2cnc(SCc3c(F)cc(S(=O)(=O)N(C)[C@H](CCCC[N+](C)(C)C)C(=O)O)cc3F)n2-c2ccc(F)cc2)ccc1Cl` [Compound 17k, (R)-5-carboxy-5-(4-((5-(2-(4-chloro-3-methoxyphenyl)propan-2-yl)-1-(4-fluoro-phenyl)-1H-imidazol-2-ylthio)methyl)-3,5-difluoro-N-methylphenylsulfonamido)-N,N,N-trimethylpentan-1-aminium 2,2,2-trifluoroacetate], the EC50 on human TGR5 (h-TGR5) and on h-TGR5 was less than 100 nM in each case.
With `CCN([C@@H](CCC[N+](C)(C)C)C(=O)O)S(=O)(=O)c1cc(F)c(CSc2ncc(C(C)(C)c3ccc(Cl)c(OC)c3)n2-c2ccc(F)cc2)c(F)c1` [Compound 17a, (S)-4-carboxy-4-(4-((5-(2-(4-chloro-3-methoxyphenyl)propan-2-yl)-1-(4-fluorophenyl)-1H-imidazol-2-ylthio)methyl)-N-ethyl-3,5-difluorophenylsulfonamido)-N,N,N-trimethylbutan-1-aminium 2,2,2-trifluoroacetate], the EC50 at human TGR5 (h-TGR5) and on h-TGR5 was less than 100 nM in each case.
Consider `COc1cc(C(C)(C)c2cnc(SCc3c(F)cc(S(=O)(=O)N(C)[C@H](CCC[N+](C)(C)C)C(=O)O)cc3F)n2-c2ccc(F)cc2)ccc1Cl` [Compound 17c, (R)-4-carboxy-4-(4-((5-(2-(4-chloro-3-methoxyphenyl)propan-2-yl)-1-(4-fluorophenyl)-1H-imidazol-2-ylthio)methyl)-3,5-difluoro-N-methylphenylsulfonamido)-N,N,N-trimethylbutan-1-aminium 2,2,2-trifluoroacetate], for which the EC50 at human TGR5 (h-TGR5) and on h-TGR5 was less than 100 nM throughout.
With `COc1cc(C(C)(C)c2cnc(SCc3c(F)cc(S(=O)(=O)N[C@H](CCCC[N+](C)(C)C)C(=O)O)cc3Cl)n2-c2ccc(F)cc2)ccc1Cl` [Compound 17i, (R)-5-carboxy-5-(3-chloro-4-((5-(2-(4-chloro-3-methoxyphenyl)propan-2-yl)-1-(4-fluorophenyl)-1H-imidazol-2-ylthio)methyl)-5-fluorophenylsulfonamido)-N,N,N-trimethylpentan-1-aminium 2,2,2-trifluoroacetate], the EC50 on human TGR5 (h-TGR5) and on h-TGR5 was less than 100 nM each time.
As for `COc1cc(-n2c(C(C)(C)c3ccc(Cl)c(Cl)c3)cnc2SCc2c(F)cc(C(=O)N[C@H]3CCC[N+](C)(C)C3)cc2Cl)ccc1F` [Example 2o, (3S)-3-[({3-chloro-4-[({5-[1-(3,4-dichlorophenyl)-1-methylethyl]-1-[4-fluoro-3-(methyloxy)phenyl]-1H-imidazol-2-yl}thio)methyl]-5-fluorophenyl}carbonyl)amino]-1,1-dimethylpiperidinium], the EC50 at human TGR5 (h-TGR5) and on h-TGR5 was less than 100 nM throughout.
On to `COc1cc(C(C)(C)c2cnc(SCc3c(F)cc(S(=O)(=O)Nc4cccc[n+]4C)cc3Cl)n2-c2ccc(F)cc2)ccc1F` [Compound 11t, 2-({[3-chloro-5-fluoro-4-({[5-{1-[4-fluoro-3-(methyloxy)phenyl]-1-methylethyl}-1-(4-fluorophenyl)-1H-imidazol-2-yl]thio}methyl)phenyl]sulfonyl}amino)-1-methylpyridinium], for which the EC50 on human TGR5 (h-TGR5) and on h-TGR5 was less than 100 nM throughout.
In the case of `COc1cc(C(C)(C)c2cnc(SCc3c(F)cc(S(=O)(=O)N4CCC[C@@H]([N+](C)(C)C)C4)cc3Cl)n2-c2ccc(F)cc2)ccc1F` [Compound 11p, (3R)-1-{[3-chloro-5-fluoro-4-({[5-{1-[4-fluoro-3-(methyloxy)phenyl]-1-methylethyl}-1-(4-fluorophenyl)-1H-imidazol-2-yl]thio}methyl)phenyl]sulfonyl}-N,N,N-trimethylpiperidin-3-aminium], the EC50 on human TGR5 (h-TGR5) and on h-TGR5 was less than 100 nM throughout.
On to `COc1cc(C(C)(C)c2cnc(SCc3c(F)cc(C(=O)NCC[N+]4(C)CC[N+](C)(C)CC4)cc3Cl)n2-c2ccc(F)cc2)ccc1Cl` [Example 2i, 1-[2-({[3-chloro-4-({[5-{1-[4-chloro-3-(methyloxy)phenyl]-1-methylethyl}-1-(4-fluorophenyl)-1H-imidazol-2-yl]thio}methyl)-5-fluorophenyl]carbonyl}amino)ethyl]-1,4,4-trimethylpiperazinediium], for which the EC50 on human TGR5 (h-TGR5) and at h-TGR5 was 100 to 1000 nM each time.
With `COc1cc(C(C)(C)c2cnc(SCc3c(F)cc(S(=O)(=O)N(C)[C@@H](CCCCC[N+](C)(C)C)C(=O)O)cc3Cl)n2-c2ccc(F)cc2)ccc1Cl` [Compound 17l, (S)-6-carboxy-6-(3-chloro-4-((5-(2-(4-chloro-3-methoxyphenyl)propan-2-yl)-1-(4-fluorophenyl)-1H-imidazol-2-ylthio)methyl)-5-fluoro-N-methylphenylsulfonamido)-N,N,N-trimethylhexan-1-aminium 2,2,2-trifluoroacetate], the half-maximal effective concentration (EC50) at human TGR5 (h-TGR5) and on h-TGR5 was less than 100 nM throughout.
Regarding `COc1cc(-n2c(C(C)(C)c3ccc4onc(N)c4c3)cnc2SCc2c(F)cc(C(=O)NCC[N+](C)(C)C)cc2Cl)ccc1F` [Example 1b, 2-[({4-[({5-[1-(3-amino-1,2-benzisoxazol-5-yl)-1-methylethyl]-1-[4-fluoro-3-(methyloxy)phenyl]-1H-imidazol-2-yl}thio)methyl]-3-chloro-5-fluorophenyl}carbonyl)amino]-N,N,N-trimethylethanaminium], the EC50 on human TGR5 (h-TGR5) and at h-TGR5 was less than 100 nM in each case.
`COc1cc(C(C)(C)c2cnc(SCc3c(F)cc(S(=O)(=O)N(CCC[N+](C)(C)C)CC(=O)O)cc3Cl)n2-c2ccc(F)cc2)ccc1Cl` [Compound 14s, 3-[(carboxymethyl){[3-chloro-4-({[5-{1-[4-chloro-3-(methyloxy)phenyl]-1-methylethyl}-1-(4-fluorophenyl)-1H-imidazol-2-yl]thio}methyl)-5-fluorophenyl]sulfonyl}amino]-N,N,N-trimethylpropan-1-aminium]: the EC50 on human TGR5 (h-TGR5) and at h-TGR5 was less than 100 nM each time.
Regarding `COc1cc(C(C)(C)c2cnc(SCc3c(F)cc(S(=O)(=O)N(C)[C@@H](CCC[N+](C)(C)C)C(=O)O)cc3F)n2-c2ccc(F)cc2)ccc1Cl` [Compound 16, (S)-4-carboxy-4-(4-((5-(2-(4-chloro-3-methoxyphenyl)propan-2-yl)-1-(4-fluorophenyl)-1H-imidazol-2-ylthio)methyl)-3,5-difluoro-N-methylphenylsulfonamido)-N,N,N-trimethylbutan-1-aminium 2,2,2-trifluoroacetate], the EC50 on human TGR5 (h-TGR5) and on h-TGR5 was less than 100 nM throughout.
With `COc1cc(C(C)(C)c2cnc(SCc3c(F)cc(S(=O)(=O)N(C)CCC[N+](C)(C)C)cc3F)n2-c2ccc(F)cc2)ccc1Cl` [Compound 12a, 3-(4-((5-(2-(4-chloro-3-methoxyphenyl)propan-2-yl)-1-(4-fluorophenyl)-1H-imidazol-2-ylthio)methyl)-3,5-difluoro-N-methylphenylsulfonamido)-N,N,N-trimethylpropan-1-aminium 2,2,2-trifluoroacetate], the EC50 on human TGR5 (h-TGR5) and at h-TGR5 was less than 100 nM in each case.
Consider `COc1cc(C(C)(C)c2cnc(SCc3c(F)cc(S(=O)(=O)N(CCC[N+](C)(C)C)Cc4cccc(C(=O)O)c4)cc3F)n2-c2ccc(F)cc2)ccc1Cl` [Compound 14v, 3-([(3-carboxyphenyl)methyl]{[4-({[5-{1-[4-chloro-3-(methyloxy)phenyl]-1-methylethyl}-1-(4-fluorophenyl)-1H-imidazol-2-yl]thio}methyl)-3,5-difluorophenyl]sulfonyl}amino)-N,N,N-trimethylpropan-1-aminium], for which the EC50 at human TGR5 (h-TGR5) and on h-TGR5 was less than 100 nM in each case.

As a reminder, the EC50 is the concentration that produces a half-maximal response.
